These results are taken from patent US8404679B2, “Pyrrolidine derivatives as NK2 receptor antagonists” (Hoffmann-La Roche Inc., priority 2008, dated 2013).

One may read the pKi as the Ki on a negative log10 scale, so that one unit is a factor of ten.

pKi: −log10 of the molar value.

The target in this experiment is T1, human NK2 receptor (Homo sapiens, UniProt P21452).
T1 construct: purchased Perkin Elmer biosignal Inc. 6110510
T1 sequence (P21452 1-398): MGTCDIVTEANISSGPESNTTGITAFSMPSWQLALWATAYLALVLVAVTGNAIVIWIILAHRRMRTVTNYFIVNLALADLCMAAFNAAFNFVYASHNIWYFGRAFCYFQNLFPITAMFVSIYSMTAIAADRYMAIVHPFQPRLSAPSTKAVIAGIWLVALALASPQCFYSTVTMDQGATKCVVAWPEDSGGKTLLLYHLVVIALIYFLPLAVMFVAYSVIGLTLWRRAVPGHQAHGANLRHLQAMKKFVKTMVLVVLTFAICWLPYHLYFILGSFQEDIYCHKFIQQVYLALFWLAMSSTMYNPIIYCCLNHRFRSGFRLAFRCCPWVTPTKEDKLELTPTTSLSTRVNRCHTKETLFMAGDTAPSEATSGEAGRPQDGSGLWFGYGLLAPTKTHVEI
The experiment is described as follows: [3H]SR48968 competition binding assay. The conditions noted are these: [3H]SR48968 displacement, membranes of CHO cells stably expressing recombinant human NK2 receptor; Ki from IC50 by Cheng-Prussoff. Put shortly:
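Membranes from CHO cells stably expressing recombinant human NK2 were incubated 75 min at RT with [3H]SR48968 at its KD and 10 compound concentrations (0.0003–10 μM) in Tris-HCl pH 7.4, MnCl2, chymostatin, BSA. Filter-bound radioactivity was counted; Hill-fitted IC50 converted to Ki via Cheng-Prusoff.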
`COc1ccc(C(=O)N(C)[C@H]2CN(C(=O)c3ccc(C#N)cc3)C[C@@H]2c2ccc(Cl)cc2)cc1C(F)(F)F` (racemic) [Example 92, N-[(3RS,4SR)-4-(4-Chloro-phenyl)-1-(4-cyano-benzoyl)-pyrrolidin-3-yl]-4-methoxy-N-methyl-3-trifluoromethyl-benzamide]: the negative-log Ki (pKi) is 7.86.

As to `COc1ccc(C(=O)N(C)[C@H]2CN(C(=O)C3CCN(C(=O)OC(C)(C)C)CC3)C[C@@H]2c2ccc(Cl)cc2)cc1C(F)(F)F` (racemic) [Example 95, 4-{(3SR,4RS)-3-(4-Chloro-phenyl)-4-[(4-methoxy-3-trifluoromethyl-benzoyl)-methyl-amino]-pyrrolidine-1-carbonyl}-piperidine-1-carboxylic acid tert-butyl ester], the negative logarithm of the Ki (pKi) was 8.66.

On to `COc1ccc(C(=O)N(C)[C@H]2CN(C(=O)C3CCN(C(=O)C4(C)CC4)CC3)C[C@@H]2c2ccc(Cl)c(Cl)c2)cc1C(F)(F)F` (racemic) [Example 96, N-{(3RS,4SR)-4-(3,4-Dichloro-phenyl)-1-[1-(1-methyl-cyclopropanecarbonyl)-piperidine-4-carbonyl]-pyrrolidin-3-yl}-4-methoxy-N-methyl-3-trifluoromethyl-benzamide], for which the pKi was 9.10.

Regarding `CN(C(=O)c1ccc(Cl)c(C(F)(F)F)c1)[C@H]1CN(C(=O)C2CCN(C(=O)C3(C)CC3)CC2)C[C@@H]1c1ccc(Cl)c(Cl)c1` (racemic) [Example 97, 4-Chloro-N-{(3RS,4SR)-4-(3,4-dichloro-phenyl)-1-[1-(1-methyl-cyclopropanecarbonyl)-piperidine-4-carbonyl]-pyrrolidin-3-yl}-N-methyl-3-trifluoromethyl-benzamide], the pKi was 9.15. Take `CN(C(=O)c1ccc(F)c(OC(F)(F)F)c1)[C@H]1CN(C(=O)C2CCN(C(=O)C3(C)CC3)CC2)C[C@@H]1c1ccc(Cl)c(Cl)c1` (racemic) [Example 98, N-{(3RS,4SR)-4-(3,4-Dichloro-phenyl)-1-[1-(1-methyl-cyclopropanecarbonyl)-piperidine-4-carbonyl]-pyrrolidin-3-yl}-4-fluoro-N-methyl-3-trifluoromethoxy-benzamide]: the negative-log Ki (pKi) is 9.05.

With `COc1cc(C(=O)N(C)[C@H]2CN(C(=O)C3CCN(C(=O)C4(C)CC4)CC3)C[C@@H]2c2ccc(Cl)c(Cl)c2)ccc1Cl` (racemic) [Example 99, 4-Chloro-N-{(3RS,4SR)-4-(3,4-dichloro-phenyl)-1-[1-(1-methyl-cyclopropanecarbonyl)-piperidine-4-carbonyl]-pyrrolidin-3-yl}-3-methoxy-N-methyl-benzamide], the negative logarithm of the Ki (pKi) was 9.05. With `CN(C(=O)c1ccc(F)cc1)[C@H]1CN(C(=O)C2CCN(C(=O)C3(C)CC3)CC2)C[C@@H]1c1ccc(Cl)c(Cl)c1` (racemic) [Example 100, N-{(3RS,4SR)-4-(3,4-Dichloro-phenyl)-1-[1-(1-methyl-cyclopropanecarbonyl)-piperidine-4-carbonyl]-pyrrolidin-3-yl}-4-fluoro-N-methyl-benzamide] the figure was 8.64; with `CN(C(=O)Cc1ccc(F)cc1)[C@H]1CN(C(=O)C2CCN(C(=O)C3(C)CC3)CC2)C[C@@H]1c1ccc(Cl)c(Cl)c1` (racemic) [Example 101, N-{(3RS,4SR)-4-(3,4-Dichloro-phenyl)-1-[1-(1-methyl-cyclopropanecarbonyl)-piperidine-4-carbonyl]-pyrrolidin-3-yl}-2-(4-fluoro-phenyl)-N-methyl-acetamide], 7.79.

As to `CN(C(=O)CCc1ccc(F)cc1)[C@H]1CN(C(=O)C2CCN(C(=O)C3(C)CC3)CC2)C[C@@H]1c1ccc(Cl)c(Cl)c1` (racemic) [Example 102, N-{(3RS,4SR)-4-(3,4-Dichloro-phenyl)-1-[1-(1-methyl-cyclopropanecarbonyl)-piperidine-4-carbonyl]-pyrrolidin-3-yl}-3-(4-fluoro-phenyl)-N-methyl-propionamide], the pKi is 8.62. With `COc1ccc(C(=O)N(C)[C@H]2CN(C(=O)C3CCNCC3)C[C@@H]2c2ccc(Cl)cc2)cc1C(F)(F)F` (racemic) [Example 103, N-[(3RS,4SR)-4-(4-Chloro-phenyl)-1-(piperidine-4-carbonyl)-pyrrolidin-3-yl]-4-methoxy-N-methyl-3-trifluoromethyl-benzamide] the figure was 8.15; with `COc1ccc(C(=O)N(C)[C@H]2CN(C(=O)C3CCN(C(C)C)CC3)C[C@@H]2c2ccc(Cl)cc2)cc1C(F)(F)F` (racemic) [Example 104, N-[(3RS,4SR)-4-(4-Chloro-phenyl)-1-(1-isopropyl-piperidine-4-carbonyl)-pyrrolidin-3-yl]-4-methoxy-N-methyl-3-trifluoromethyl-benzamide], 8.39; with `COc1ccc(C(=O)N(C)[C@H]2CN(C(=O)C3CCN(CC4CC4)CC3)C[C@@H]2c2ccc(Cl)cc2)cc1C(F)(F)F` (racemic) [Example 105, N-[(3RS,4SR)-4-(4-Chloro-phenyl)-1-(1-cyclopropylmethyl-piperidine-4-carbonyl)-pyrrolidin-3-yl]-4-methoxy-N-methyl-3-trifluoromethyl-benzamide], 9.10. With `CN(C(=O)c1ccc(Cl)cn1)[C@H]1CN(C(=O)C2CCN(C(=O)C3(C)CC3)CC2)C[C@@H]1c1ccc(Cl)c(Cl)c1` (racemic) [Example 108, 5-Chloro-pyridine-2-carboxylic acid {(3RS,4SR)-4-(3,4-dichloro-phenyl)-1-[1-(1-methyl-cyclopropanecarbonyl)-piperidine-4-carbonyl]-pyrrolidin-3-yl}-methyl-amide] the figure was 8.59; with `CN(C(=O)c1ccc(F)c(C#N)c1)[C@H]1CN(C(=O)C2CCN(C(=O)C3(C)CC3)CC2)C[C@@H]1c1ccc(Cl)c(Cl)c1` (racemic) [Example 109, 3-Cyano-N-{(3RS,4SR)-4-(3,4-dichloro-phenyl)-1-[1-(1-methyl-cyclopropanecarbonyl)-piperidine-4-carbonyl]-pyrrolidin-3-yl}-4-fluoro-N-methyl-benzamide], 9.10; with `COc1ccc(C(=O)N(C)[C@H]2CN(C(=O)C3CCN(CCC(F)(F)F)CC3)C[C@@H]2c2ccc(Cl)cc2)cc1C(F)(F)F` (racemic) [Example 110, N-{(3RS,4SR)-4-(4-Chloro-phenyl)-1-[1-(3,3,3-trifluoro-propyl)-piperidine-4-carbonyl]-pyrrolidin-3-yl}-4-methoxy-N-methyl-3-trifluoromethyl-benzamide], 9.10. On to `COc1ccc(C(=O)N(C)[C@H]2CN(C(=O)C3CCN(CCC(C)(C)C)CC3)C[C@@H]2c2ccc(Cl)cc2)cc1C(F)(F)F` (racemic) [Example 111, N-{(3RS,4SR)-4-(4-Chloro-phenyl)-1-[1-(3,3-dimethyl-butyl)-piperidine-4-carbonyl]-pyrrolidin-3-yl}-4-methoxy-N-methyl-3-trifluoromethyl-benzamide], for which the pKi is 9.15. Regarding `CN(C(=O)CC1CCCC1)[C@H]1CN(C(=O)C2CCN(C(=O)C3(C)CC3)CC2)C[C@@H]1c1ccc(Cl)c(Cl)c1` (racemic) [Example 113, 2-Cyclopentyl-N-{(3RS,4SR)-4-(3,4-dichloro-phenyl)-1-[1-(1-methyl-cyclopropanecarbonyl)-piperidine-4-carbonyl]-pyrrolidin-3-yl}-N-methyl-acetamide], the negative-log Ki (pKi) was 8.54. With `CN(C(=O)CCC1CC1)[C@H]1CN(C(=O)C2CCN(C(=O)C3(C)CC3)CC2)C[C@@H]1c1ccc(Cl)c(Cl)c1` (racemic) [Example 114, 3-Cyclopropyl-N-{(3RS,4SR)-4-(3,4-dichloro-phenyl)-1-[1-(1-methyl-cyclopropanecarbonyl)-piperidine-4-carbonyl]-pyrrolidin-3-yl}-N-methyl-propionamide] the figure was 7.76; with `CN(C(=O)CC(C)(C)C)[C@H]1CN(C(=O)C2CCN(C(=O)C3(C)CC3)CC2)C[C@@H]1c1ccc(Cl)c(Cl)c1` (racemic) [Example 115, N-{(3RS,4SR)-4-(3,4-Dichloro-phenyl)-1-[1-(1-methyl-cyclopropanecarbonyl)-piperidine-4-carbonyl]-pyrrolidin-3-yl}-3,3,N-trimethyl-butyramide], 7.64. With `CC(C)C(C(=O)N(C)[C@H]1CN(C(=O)C2CCN(C(=O)C3(C)CC3)CC2)C[C@@H]1c1ccc(Cl)c(Cl)c1)c1ccc(F)cc1` (mixture of isomers) [Example 116, N-{(3RS,4SR)-4-(3,4-Dichloro-phenyl)-1-[1-(1-methyl-cyclopropanecarbonyl)-piperidine-4-carbonyl]-pyrrolidin-3-yl}-2-(4-fluoro-phenyl)-3,N-dimethyl-butyramide] the figure was 7.30; with `COc1ccc(C(=O)N(C)[C@H]2CN(C(=O)C3CCN(CC(C)(C)C)CC3)C[C@@H]2c2ccc(Cl)cc2)cc1C(F)(F)F` (racemic) [Example 120, N-{(3RS,4SR)-4-(4-Chloro-phenyl)-1-[1-(2,2-dimethyl-propyl)-piperidine-4-carbonyl]-pyrrolidin-3-yl}-4-methoxy-N-methyl-3-trifluoromethyl-benzamide], 9.10; with `CCN1CCC(C(=O)N2C[C@H](c3ccc(Cl)cc3)[C@@H](N(C)C(=O)c3ccc(OC)c(C(F)(F)F)c3)C2)CC1` (racemic) [Example 121, N-[(3RS,4SR)-4-(4-Chloro-phenyl)-1-(1-ethyl-piperidine-4-carbonyl)-pyrrolidin-3-yl]-4-methoxy-N-methyl-3-trifluoromethyl-benzamide], 8.29.
